What was measured:
MCF-10A [1] = settings: 72 h
Method: (§1)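 Drug sensitivity and resistance testing (DSRT) of breast cancer cell lines in 384-well plates, 5 concentrations in 10-fold dilutions over a compound-specific 10,000-fold range. After 72 h, cytotoxicity was read by CellTox Green fluorescence and viability by CellTiter-Glo luminescence (multiplexed), normalised to DMSO and benzethonium chloride controls. EC50 is the inflection point of the fitted dose-response curve (bottom asymptote free, so it can be relative for partial curves) and is censored at the highest tested concentration. Rows with DSS 0 (no meaningful response) were excluded.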

MDA-MB-468 [2] = settings: 72 h
Method: as §1

MDA-MB-231 [3] = settings: 72 h
Method: as §1

MCF-10A [4] = settings: 72 h; remark: listed apart in the source
Outline: (§2)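 Per-plate normalisation used 0.1 % DMSO and a positive kill control. Breast cancer cell lines (20 µl suspension) were seeded into 384-well plates containing compound at 5 concentrations in 10-fold steps across a compound-specific 10,000-fold range, incubated for 72 h, and read first for CellTox Green fluorescence (485/520 nm), then for CellTiter-Glo luminescence. EC50 was fitted from the dose-response curves and censored at the top concentration.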

HDQ-P1 [5] = settings: 72 h
Outline: as §2

BT-474 [6] = settings: 72 h
Outline: as §2

MDA-MB-231 [7] = settings: 72 h; remark: listed apart in the source
Outline: as §2

BT-549 [8] = settings: 72 h
Outline: as §2

MFM-223 [9] = test: normalised response (% of control), CellTiter-Glo; higher = more viable cells (100 = DMSO, 0 = benzethonium chloride kill control); settings: incubation time: 72 h
Outline: (§3)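 Breast cancer cell lines were exposed for 72 h in 384-well plates to compound at 5 concentrations, 10-fold apart, covering a 10,000-fold range fixed for each compound. Plates were read for CellTox Green fluorescence and CellTiter-Glo luminescence and normalised to 0.1 % DMSO (100) and a positive kill control (0). Each value is the normalised signal at one concentration of the series.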

MDA-MB-453 [10] = test: as above; settings: incubation time: 72 h
Outline: as §3

MCF-10A [11] = test: as above; settings: incubation time: 72 h
Outline: as §3

MDA-MB-468 [12] = test: as above; settings: incubation time: 72 h
Outline: as §3

CAL-85-1 [13] = test: as above; settings: incubation time: 72 h
Outline: as §3

Hs578T [14] = test: as above; settings: incubation time: 72 h
Outline: as §3

DU-4475 [15] = test: as above; settings: incubation time: 72 h
Outline: as §3

HDQ-P1 [16] = test: as above; settings: incubation time: 72 h
Outline: as §3

BT-474 [17] = test: as above; settings: incubation time: 72 h
Outline: as §3

MDA-MB-231 [18] = test: as above; settings: incubation time: 72 h
Outline: as §3

CAL-148 [19] = test: as above; settings: incubation time: 72 h
Outline: as §3

HCC1937 [20] = test: as above; settings: incubation time: 72 h
Outline: as §3

SK-BR-3 [21] = test: as above; settings: incubation time: 72 h
Outline: as §3

CAL-51 [22] = test: as above; settings: incubation time: 72 h
Outline: as §3

CAL-120 [23] = test: as above; settings: incubation time: 72 h
Outline: as §3

MDA-MB-436 [24] = test: as above; settings: incubation time: 72 h
Outline: as §3

BT-549 [25] = test: as above; settings: incubation time: 72 h
Outline: as §3

HCC1599 [26] = test: as above; settings: incubation time: 72 h
Outline: as §3

HCC1143 [27] = test: as above; settings: incubation time: 72 h
Outline: as §3

MFM-223 [28] = test: normalised viability (% of control), CellTiter-Blue; higher = more viable cells (100 = DMSO, 0 = benzethonium chloride kill control); settings: incubation time: 72 h
Outline: (§4)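 Compound dissolved in 5 µl medium was pre-loaded into 384-well plates, and breast cancer cell lines in 20 µl suspension were seeded on top and incubated 72 h. After adding 2.5 µl CellTiter-Blue reagent for 2 h at 37 °C, fluorescence was read at 560/590 nm. Plates were normalised to vehicle (100) and a positive kill control (0), with Z'-factor quality control. Each value is normalised viability at a single listed concentration from the series.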

MDA-MB-453 [29] = test: as above; settings: incubation time: 72 h
Outline: as §4

MDA-MB-468 [30] = test: as above; settings: incubation time: 72 h
Outline: as §4

CAL-85-1 [31] = test: as above; settings: incubation time: 72 h
Outline: as §4

Hs578T [32] = test: as above; settings: incubation time: 72 h
Outline: as §4

DU-4475 [33] = test: as above; settings: incubation time: 72 h
Outline: as §4

HDQ-P1 [34] = test: as above; settings: incubation time: 72 h
Outline: as §4

BT-474 [35] = test: as above; settings: incubation time: 72 h
Outline: as §4

MDA-MB-231 [36] = test: as above; settings: incubation time: 72 h
Outline: as §4

CAL-148 [37] = test: as above; settings: incubation time: 72 h
Outline: as §4

HCC1937 [38] = test: as above; settings: incubation time: 72 h
Outline: as §4

SK-BR-3 [39] = test: as above; settings: incubation time: 72 h
Outline: as §4

CAL-51 [40] = test: as above; settings: incubation time: 72 h
Outline: as §4

CAL-120 [41] = test: as above; settings: incubation time: 72 h
Outline: as §4

MDA-MB-436 [42] = test: as above; settings: incubation time: 72 h
Outline: as §4

BT-549 [43] = test: as above; settings: incubation time: 72 h
Outline: as §4

HCC1599 [44] = test: as above; settings: incubation time: 72 h
Outline: as §4

HCC1143 [45] = test: as above; settings: incubation time: 72 h
Outline: as §4

Compound | normalised response (MFM-223 [9]) [%] | normalised response (MDA-MB-453 [10]) [%] | normalised response (MCF-10A [11]) [%] | normalised response (MDA-MB-468 [12]) [%] | normalised response (CAL-85-1 [13]) [%] | normalised response (Hs578T [14]) [%] | normalised response (DU-4475 [15]) [%] | normalised response (HDQ-P1 [16]) [%] | normalised response (BT-474 [17]) [%] | normalised response (MDA-MB-231 [18]) [%] | normalised response (CAL-148 [19]) [%] | normalised response (HCC1937 [20]) [%] | normalised response (SK-BR-3 [21]) [%] | normalised response (CAL-51 [22]) [%] | normalised response (CAL-120 [23]) [%] | normalised response (MDA-MB-436 [24]) [%] | normalised response (BT-549 [25]) [%] | normalised response (HCC1599 [26]) [%] | normalised response (HCC1143 [27]) [%] | normalised viability (MFM-223 [28]) [%] | other results
CCC(C)(C)C(=O)O[C@H]1C[C@@H](C)C=C2C=C[C@H](C)[C@H](CC[C@@H]3C[C@@H](O)CC(=O)O3)[C@H]21 [Simvastatin] |  |  |  |  |  |  |  |  |  |  |  |  |  |  |  |  |  |  |  |  | EC50, CellTox Green (MCF-10A [1]): 2.59 µM; EC50, CellTox Green (MDA-MB-468 [2]): 0.511 µM; EC50, CellTox Green (MDA-MB-231 [3]): 1.68 µM; EC50, CellTiter-Glo (MCF-10A [4]): 6.39 µM; EC50, CellTiter-Glo (HDQ-P1 [5]): 1.7 µM; EC50, CellTiter-Glo (BT-474 [6]): 1.2 µM; EC50, CellTiter-Glo (MDA-MB-231 [7]): 3.15 µM; EC50, CellTiter-Glo (BT-549 [8]): > 10 µM
Cn1c(Nc2ccc(C(F)(F)F)cc2)nc2cc(Oc3ccnc(-c4ncc(C(F)(F)F)[nH]4)c3)ccc21 [RAF265] (0.1 nM) | 108 | 118 | 107 | 102 | 102 | 106 | 107 | 103 | 107 | 103 | 110 | 102 | 110 | 73.6 | 99 | 104 | 104 | 112 | 106 | 96 | normalised viability (MDA-MB-453 [29]): 103%; normalised viability (MDA-MB-468 [30]): 104%; normalised viability (CAL-85-1 [31]): 87.7%; normalised viability (Hs578T [32]): 111%; normalised viability (DU-4475 [33]): 105%; normalised viability (HDQ-P1 [34]): 80.2%; normalised viability (BT-474 [35]): 102%; normalised viability (MDA-MB-231 [36]): 117%; normalised viability (CAL-148 [37]): 95.6%; normalised viability (HCC1937 [38]): 99%; normalised viability (SK-BR-3 [39]): 89.5%; normalised viability (CAL-51 [40]): 94.2%; normalised viability (CAL-120 [41]): 86.2%; normalised viability (MDA-MB-436 [42]): 104%; normalised viability (BT-549 [43]): 117%; normalised viability (HCC1599 [44]): 119%; normalised viability (HCC1143 [45]): 104%
C#Cc1cccc(Nc2ncnc3cc(OCCOC)c(OCCOC)cc23)c1 [Erlotinib] (1 nM) | 105 | 116 | 115 | 93 | 102 | 106 | 106 | 100 | 101 | 101 | 103 | 104 | 100 | 107 | 96.1 | 131 | 106 | 97.1 | 101 | 98.8 | normalised viability (MDA-MB-453 [29]): 99.8%; normalised viability (MDA-MB-468 [30]): 107%; normalised viability (CAL-85-1 [31]): 95.3%; normalised viability (Hs578T [32]): 84%; normalised viability (DU-4475 [33]): 89%; normalised viability (HDQ-P1 [34]): 102%; normalised viability (BT-474 [35]): 95%; normalised viability (MDA-MB-231 [36]): 107%; normalised viability (CAL-148 [37]): 97.8%; normalised viability (HCC1937 [38]): 102%; normalised viability (SK-BR-3 [39]): 108%; normalised viability (CAL-51 [40]): 98.2%; normalised viability (CAL-120 [41]): 85%; normalised viability (MDA-MB-436 [42]): 99.6%; normalised viability (BT-549 [43]): 111%; normalised viability (HCC1599 [44]): 80.1%; normalised viability (HCC1143 [45]): 86.6%
CN[C@@H]1C[C@H]2O[C@@](C)([C@@H]1OC)n1c3ccccc3c3c4c(c5c6ccccc6n2c5c31)C(=O)N[C@H]4O [UCN-01] (1 nM) | 102 | 99.8 | 102 | 103 | 102 | 98 | 109 | 99 | 97.5 | 103 | 105 | 90.9 | 109 | 78.4 | 91.5 | 100 | 95.5 | 100 | 98.7 | 108 | normalised viability (MDA-MB-453 [29]): 99.3%; normalised viability (MDA-MB-468 [30]): 99.8%; normalised viability (CAL-85-1 [31]): 87.8%; normalised viability (Hs578T [32]): 106%; normalised viability (DU-4475 [33]): 128%; normalised viability (HDQ-P1 [34]): 69.6%; normalised viability (BT-474 [35]): 99.2%; normalised viability (MDA-MB-231 [36]): 92%; normalised viability (CAL-148 [37]): 102%; normalised viability (HCC1937 [38]): 82.1%; normalised viability (SK-BR-3 [39]): 104%; normalised viability (CAL-51 [40]): 98.9%; normalised viability (CAL-120 [41]): 82.9%; normalised viability (MDA-MB-436 [42]): 111%; normalised viability (BT-549 [43]): 92%; normalised viability (HCC1599 [44]): 118%; normalised viability (HCC1143 [45]): 95.7%
